# According to patent US20140045860A1, “SMALL MOLECULE INHIBITORS FOR TREATING PARASITIC INFECTIONS” (NEW YORK UNIVERSITY, priority 2011, published 2014):
# System: T. cruzi
# Assay: T. cruzi inhibition assay (beta-galactosidase T. cruzi co-cultured with NIH/3T3 host cells)
# Type: cell-based
# Details: Trypanosoma cruzi, NIH3T3; Table 2
# Procedure: A high-throughput screen of small molecules was performed in duplicate in the recombinant Tulahuen strain of T. cruzi stably expressing a beta-galactosidase reporter gene. Trypomastogote-stage parasites were co-cultured with mouse fibroblast NIH/3T3 host cells, (Buckner F S, Verlinde C L, La Flamme A C, Van Voorhis W C. Efficient technique for screening drugs for activity against Trypanosoma cruzi using parasites expressing beta-galactosidase. Antimicrob Agents Chemother. 1996; 40(11): 2592-2597). Signal was normalized to neutral (DMSO) controls, and a 75% inhibition cutoff was used to define a hit. Compounds initially designated as hits were retested in dose in the primary assay to confirm their inhibitory activity. In parallel, compounds were tested in toxicity assays against NIH/3T3 host cells to determine if these compounds were cytotoxic to mammalian cells and thus, false positives. Compounds that reduced the viability of NIH/3T3 cells were excluded as viable hits. A subset of hits were then tested in a similar infection assay with the Tulahuen strain of T. cruzi infecting murine L-6 cells and the intracellular T. cruzi immunofluorescence assay described below.
# 1. T. cruzi Inhibition Assay
# 98% DMEM, Phenol Red, 2% FBS, and 1% PSG were mixed and filtered through a 0.2 microns membrane. The cells were kept at 4° C., then warmed up to 37° C. in a water bath before use.
# Gal-Screen. Using a Gal-Screen base kit, Buffer B (Catalog no. T2361) was mixed with 1:25 substrate (Catalog no. T2359).
# NIH/3T3 cells were cultivated in DMEM supplemented with 10% FBS and 1% PSG in T175 in 50 mL total of medium.
# Parasite Culture: T. cruzi β-gal (Tc): T. cruzi β-gal were cultivated in DMEM supplemented with 2% FBS and 1% PSG in T175 flasks with vented caps in 50 mL total of medium.
# 2. Growth Inhibition Assay for HTS (384-Well Plates)
# The medium was warmed up with 2% FBS/DMEM. The parasites were harvested in 50-mL tubes, and spun for 10 minutes at 2200 rpm. Approximately 15 mL of media was aspirated, and the samples were incubated for 3-5 h. The NIH/3T3 cells were trypsinized (refer to cell culture protocol). When the NIH/3T3 cells were detached, the cells were harvested in DMEM, 2% FBS, and 1% PSG, then counted using the Nexcelom cellometer. The cells were diluted to 166,667 cells/mL, then added to a flask and plated 5,000 cells/30 μL per well using a standard cassette multiwall drob Combi. The cells were incubated for 3 h, then T. cruzi cells were counted, diluted to 0.166 million cells/mL, and transferred to a 2-liter flask. Then, […] compounds/DMSO were pinned to each well with NIH/3T3 cells. Next, 30 μL/well of parasites (5000 T. cruzi) were added with a standard cassette multiwall drop Combi on slow speed, and incubated for 4 days (or a minimum of 90 h). Gal-Screen was prepared, 30 μL per well were dispensed in a 384-well plate, incubated for 60 minutes, and the luminescence was read using Envision (Perkin-Elmer) at 0.1 sec/well.
row,SMILES,IC50 [µM]
1,C[C@@H]1CN([C@H](C)CO)C(=O)c2cccc(NC(=O)c3ccncc3)c2O[C@@H]1CN(C)Cc1ccc(Oc2ccccc2)cc1 [Compound 28],0.0426
2,C[C@H]1CN([C@@H](C)CO)C(=O)c2cccc(NC(=O)c3ccncc3)c2O[C@H]1CN(C)Cc1ccc(Oc2ccccc2)cc1 [Compound 29],< 0.0026
3,C[C@@H]1CN([C@@H](C)CO)C(=O)c2cccc(NC(=O)c3ccncc3)c2O[C@H]1CN(C)Cc1ccc(Cl)cc1 [Compound 30],< 0.0026
4,C[C@@H]1CN([C@@H](C)CO)C(=O)c2cc(-c3ccncc3)cnc2O[C@H]1CN(C)Cc1ccc(Oc2ccccc2)cc1 [Compound 31],1.28
5,C[C@@H]1CN([C@@H](C)CO)C(=O)c2cccc(NC(=O)c3ccncc3)c2O[C@@H]1CN(C)Cc1ccc(Oc2ccccc2)cc1 [Compound 32],0.00434
6,C[C@@H]1CN([C@@H](C)CO)C(=O)c2cc(-c3cncnc3)cnc2O[C@H]1CN(C)Cc1ccc(Oc2ccccc2)cc1 [Compound 33],> 10
7,CC(C)N1C[C@@H](C)[C@H](CN(C)Cc2ccc(Oc3ccccc3)cc2)Oc2c(NC(=O)c3ccncc3)cccc2C1=O [Compound 34],< 0.0026
8,Cc1cc(C(=O)Nc2cccc3c2O[C@@H](CN(C)Cc2ccc(Oc4ccccc4)cc2)[C@H](C)CN([C@@H](C)CO)C3=O)n(C)n1 [Compound 35],> 10
9,C[C@@H]1CN([C@@H](C)CO)C(=O)c2cccc(NC(=O)c3ccncc3)c2O[C@H]1CN(C)Cc1ccc2c(c1)OCO2 [Compound 36],0.00659
10,C[C@@H]1CN([C@H](C)CO)C(=O)c2cccc(NC(=O)c3ccncc3)c2O[C@H]1CN(C)Cc1ccccc1 [Compound 37],0.0153
11,C[C@@H]1CN([C@@H](C)CO)C(=O)c2cccc(NC(=O)c3cnccn3)c2O[C@H]1CN(C)Cc1ccc(Oc2ccccc2)cc1 [Compound 38],1
12,COc1ccc(CN(C)C[C@@H]2Oc3c(NC(=O)c4ccncc4)cccc3C(=O)N([C@@H](C)CO)C[C@H]2C)cc1 [Compound 39],0.011
13,C[C@H]1CN([C@@H](C)CO)C(=O)c2cccc(NC(=O)c3ccncc3)c2O[C@@H]1CN(C)Cc1ccc(Oc2ccccc2)cc1 [Compound 40],< 0.0026
14,C[C@@H]1CN([C@H](C)CO)C(=O)c2cccc(NC(=O)c3ccncc3)c2O[C@H]1CN(C)Cc1ccc(Oc2ccccc2)cc1 [Compound 41],0.000529
15,C[C@@H]1CN([C@@H](C)CO)C(=O)c2cccc(NC(=O)c3ccncc3)c2O[C@H]1CN(C)CC1CCCCC1 [Compound 42],0.0421
16,C[C@@H]1CN([C@@H](C)CO)C(=O)c2cc(-c3cccnc3)cnc2O[C@H]1CN(C)Cc1ccc(Oc2ccccc2)cc1 [Compound 43],9.27
